# Experimental data: PMC10988555, “Exploiting Co(III)-Cyclopentadienyl Complexes To Develop Anticancer Agents” (Inorganic Chemistry, 2024)
# What was measured:
# [1] = test system: HCT116 (human colorectal carcinoma) cell line; assay: Antiproliferative activity, MTS assay, HCT116; type: cell-based; settings: for IC50: 48 h exposure, MTS assay; for Selectivity index (SI), HCT116: IC50 fibroblasts/IC50 HCT116, values with * calculated taking fibroblast IC50 as 100 μM (minimal value)
# Procedure: (§1) Human colorectal carcinoma cell line (HCT116), human breast cancer cell lines (MDA-MB-231 and MCF-7), and normal human primary dermal fibroblasts neonatal (PCS-201-010) cell line were grown in DMEM (Dulbecco’s modified Eagle’s medium) (Invitrogen Corp., Grand Island, NY, USA) supplemented with 10% (v/v) fetal bovine serum and 1% (v/v) antibiotic/antimycotic solution (Invitrogen Corp.). The human ovarian carcinoma (A2780) cell line was cultivated using RPMI (Roswell Park Memorial Institute) medium supplemented as in DMEM medium. The supplemented medium is named a complete medium. Cells were grown in an incubator with a humidified atmosphere at 5% (v/v) CO2 and 37 °C. All cell lines were purchased from ATCC (ATCC, American Type Culture Collection).
# (§2) The evaluation of the cytotoxic potential of complexes 1–4 was obtained through in vitro measurements of the antiproliferative activity of these complexes. Cells were plated in 96-well plates at 7.5 × 10^4 cells/mL and incubated at 37 °C with 5% (v/v) CO2. After 24 h, the culture medium was replaced with fresh medium (100 μL) containing 0.1–50 μM of the different complexes and incubated for 48 h in tumor cell lines or containing 0.1–100 μM of the different complexes and incubated for 48 h in fibroblasts. […] The fibroblast cell line was used as a control of the cytotoxicity of the complexes for healthy cells. Cell viability was evaluated using Cell Titer 96 Aqueous Non-Radioactive Cell Proliferation Assay (Promega, Madison, WI, USA) using 3-(4,5-dimethylthiazol-2-yl)-5-(3-carboxymethoxyphenyl)-2-(4-sulfophenyl)-2H-tetrazolium inner salt (MTS), as described previously.[60] In metabolically active cells, enzymes present in the mitochondria catalyze a reaction in which NADPH/NADH is produced. These enzymes reduce the MTS reagent into a brownish product, Formazan, which can be quantified by measuring the absorbance at 490 nm. The quantity of formazan produced is directly proportional to the number of viable cells in the culture. This quantification was executed with a Biorad microplate reader Model 680 (Bio-Rad, Hercules, CA, USA). Half maximal inhibitory concentration (IC50) was calculated using GraphPad Prism 6 (GraphPadSoftware). We have calculated the ratio between the IC50 of fibroblasts and the IC50 of HCT116, A2780, MDA-MB-231, or MCF-7 cell lines for complexes 1–4 that was named herein as the Selectivity index (SI). To ensure the solubility of the complexes in all biological assays, complex solutions were freshly prepared and well solubilized before addition to the cells.
# [2] = test system: DNA of A2780 cells; assay: Single-cell gel electrophoresis (comet assay); type: cell-based, human; settings: for fold increase in DNA in the tail compared to DMSO control: A2780, 10× IC50, 12 h; for % of DNA in the tail: A2780, complexes 10× IC50 for 12 h, H2O2 0.05% for 30 min at RT
# Procedure: A2780 cells were seeded in 6-well plates with a density of 1 × 10^6 cells/well and incubated for 24 h in an incubator with a humidified atmosphere at 5% (v/v) CO2 and 37 °C. […] The complexes and DMSO were incubated at 37 °C for 12 h and H2O2 for 30 min at RT. Cells were harvested with a cell scraper and solutions with 1 × 10^5 cells/mL in PBS were prepared. It was withdrawn 10 μL from the solutions and added to 90 μL of 1.5% (w/v) low melting point agarose in 1× PBS and dropped on the slides prepared previously with a coating of 1.5% (w/v) agarose (normal melting point agarose) in 1× TAE buffer. After drying at 4 °C for 15 min, the slides were dipped into lysis solution (450 mM NaCl, 3.72% EDTA, 5 mM Tris; to which 10% (v/v) DMSO and 1% (v/v) Triton-X were added just before use) for 1 h at 4 °C, followed by their being dipped for 40 min into cold electrophoresis solution (1 mM EDTA, 300 mM NaOH, pH 13). Electrophoresis was performed at 4 °C for 30 min at 25 V using a Sub-Cell model 96 apparatus (Bio-Rad). Afterward, slides were placed in 0.1 M Tris–HCl buffer (pH 7.5) at 4 °C for 15 min for neutralization, followed by 15 min in methanol at 4 °C and drying at 37 °C. For visualization of comets, slides were hydrated with distilled water at 4 °C for 30 min, stained with 20 μL of GelRed working solution (3×), and covered with new coverslips. The slides were observed under a Ti–U Eclipse inverted microscope (Nikon Instruments, Japan) and analyzed by CometScore version 2.1 (TriTek). About 100 cells per sample were analyzed. The percentage of DNA in the tail was used as a measure of the total DNA strand breakage.
# [3] = test system: MCF-7 (human breast cancer) cell line; assay: Antiproliferative activity, MTS assay, MCF-7; type: cell-based; settings: for IC50: 48 h exposure, MTS assay
# Procedure: as §1, §2
# [4] = test system: A2780 cells; assay: Cell fractioning and ICP-AES (cytosolic, mitochondrial, nuclear fractions); type: cell-based, human; settings: A2780, 12 h, 10× IC50, 37 °C
# Procedure: Internalization of the complexes in different cellular factions (cytosolic, mitochondrial, or nuclear) of A2780 cells was evaluated by using a cell fractionation kit (Abcam). Cells were seeded in a 24-well plate at a density of 2 × 10^5 cells/mL and incubated for 24 h at 37 °C with 5% (v/v) CO2. […] Cells were then incubated for 12 h at the same conditions as before. The culture media was recovered to a new tube (supernatant fraction) and cells were detached from the T-flask with 250 μL of TE (Gibco by life technologies). Then, we followed the instructions provided by the manufacturer of the cell fractionation kit (Abcam). At the end of the procedure, fresh aqua regia was added to the supernatant tube and to the cellular fractions and incubated overnight at room temperature (RT) in the hood fume. Samples were delivered to Laboratório de Análises/LAQV and the levels of cobalt were evaluated by ICP-AES.
# [5] = test system: normal human primary dermal fibroblasts; assay: Antiproliferative activity, MTS assay, healthy fibroblasts; type: cell-based; settings: 48 h exposure, healthy human cells
# Procedure: as §1, §2
# [6] = test system: A2780 cell line; assay: Apoptosis induction, Annexin V/PI flow cytometry; type: cell-based, human; settings: A2780, IC50 of each complex, 48 h
# Procedure: The induction of apoptosis was evaluated by flow cytometry in the A2780 cell line, through the Alexa Fluor Annexin V/Dead Cell Apoptosis Kit (ThermoFisher Scientific). A2780 cells were seeded at a density of 2 × 10^5 cells/well in 6-well plates and incubated for 24 h. After that time, the medium was replaced by medium mixed with complexes 2–4 at their IC50. […] After a period of 48 h of incubation, cells were washed with PBS 1× and TE was used to detach the cells. The cells were resuspended in annexin-binding buffer 1× and incubated for 15 min at RT with Alexa Fluor 488 annexin V and Propidium Iodide. All samples were analyzed by an Attune Acoustic Focusing Flow Cytometer (ThermoFisher Scientific) and respective software.
Compound,IC50 [1],"Selectivity index (SI), HCT116 [1]",fold increase in DNA in the tail compared to DMSO control [2],% of DNA in the tail [2],IC50 [3],Percentage of internalization in cytosol [4],Percentage of internalization in mitochondria [4],Percentage of internalization in nucleus [4],IC50 [5],percentage of cells in initial apoptosis [6],percentage of cells in late apoptosis [6],percentage of cells in necrosis [6],total apoptosis levels [6],"Selectivity index (SI), MCF-7 ([3]; IC50 fibroblasts/IC50 MCF-7, value with * calculated taking fibroblast IC50 as 100 μM (minimal value))"
"O=S(=O)([O-])C(F)(F)F.O=S(=O)([O-])C(F)(F)F.[Co+3].c1cc[cH-]c1.c1ccc(P(c2ccccc2)c2ccccc2)cc1.c1cnc2c(c1)ccc1cccnc12 [Complex 3, [Co(η^5-C5H5)(PPh3)(phen)][(CF3SO3)2]]",13.4 ± 0.1 µM,7.5*,3.2 fold,42.4%,> 50 µM,30.6% ± 2.7,26.0% ± 11.4,20.3% ± 5.8,> 100 µM,5.0%,0.9%,6.1%,5.9%,
"Cc1ccnc(-c2cc(C)ccn2)c1.O=S(=O)([O-])C(F)(F)F.O=S(=O)([O-])C(F)(F)F.[Co+3].c1cc[cH-]c1.c1ccc(P(c2ccccc2)c2ccccc2)cc1 [Complex 2, [Co(η^5-C5H5)(PPh3)(Me2bipy)][(CF3SO3)2]]",15.3 ± 0.2 µM,6.5*,3.1 fold,39.7%,> 50 µM,36.9% ± 10.4,17.6% ± 6.5,38.1% ± 7.4,> 100 µM,5.0%,0.8%,7.8%,5.8%,
"Nc1cc2cccnc2c2ncccc12.O=S(=O)([O-])C(F)(F)F.O=S(=O)([O-])C(F)(F)F.[Co+3].c1cc[cH-]c1.c1ccc(P(c2ccccc2)c2ccccc2)cc1 [Complex 4, [CoCp(PPh3)(NH2phen)][(CF3SO3)2]]",14.1 ± 0.2 µM,7.1*,4.4 fold,56.4%,10.2 ± 0.1 µM,66.4% ± 14.7,4.5% ± 2.1,18.4% ± 4.9,> 100 µM,5.6%,0.9%,5.9%,6.5%,9.8*
